Test results from patent US10111875B2, “Pyrrolopyrimidine compounds and uses thereof” (HUTCHISON MEDIPHARMA LIMITED, priority 2010, dated 2018).

molecular target: Recombinant human JAK1 catalytic domain (Homo sapiens (Human), UniProt P23458); assay: JAK1 kinase assay (Z'-LYTE Tyr 6 Peptide); format: biochemical; settings: JAK1 kinase assay, 0.3 uM concentration; read-out: inhibition percentage (IR %)
Method: JAK1/2/3 kinase assay are performed in vitro using Kit-Tyr 6 Peptide (Invitrogen, Cat. No. PV4122). TYK2 kinase assay are performed in vitro using Z′-LYTE™ Kinase Assay Kit-Tyr 3 Peptide (Invitrogen, Cat. No. PV3192). […] All compounds are initially tested at 8 different concentrations (1 μM down to 0.0003 μM) using a 1:3 serial dilution scheme.

Chain of Recombinant human JAK1 catalytic domain (P23458 875-1153): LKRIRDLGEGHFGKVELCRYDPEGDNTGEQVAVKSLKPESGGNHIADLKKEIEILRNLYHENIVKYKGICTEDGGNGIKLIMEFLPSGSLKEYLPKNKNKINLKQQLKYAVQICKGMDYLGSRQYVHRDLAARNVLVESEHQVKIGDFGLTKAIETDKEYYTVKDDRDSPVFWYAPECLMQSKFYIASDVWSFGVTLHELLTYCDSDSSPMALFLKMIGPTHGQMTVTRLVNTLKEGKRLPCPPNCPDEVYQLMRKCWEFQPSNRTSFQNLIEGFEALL

| inhibition at 0.3 µM [%] | Compound |
| --- | --- |
| 50 to 100 | CN(c1ccc(C(=O)Nc2ccccc2F)cn1)[C@@H]1CCN(c2ncnc3[nH]ccc23)C1 [Compound 192] |
| 20 to 50 | CN(c1ccc(C(=O)Nc2ccc(Cl)cc2)cn1)[C@@H]1CCN(c2ncnc3[nH]ccc23)C1 [Compound 193] |
| 20 to 50 | CN(c1ccc(C(=O)N[C@@H]2CCC[C@H]2O)cn1)[C@@H]1CCN(c2ncnc3[nH]ccc23)C1 [Compound 194] |
| 50 to 100 | C[C@@H](NC(=O)c1ccc(N(C)[C@@H]2CCN(c3ncnc4[nH]ccc34)C2)nc1)c1ccccc1 [Compound 195] |
| 20 to 50 | COc1cccc(NC(=O)c2ccc(N(C)[C@@H]3CCN(c4ncnc5[nH]ccc45)C3)nc2)c1 [Compound 196] |
| 50 to 100 | CN(C(=O)c1ccc(N(C)[C@@H]2CCN(c3ncnc4[nH]ccc34)C2)nc1)c1ccccc1 [Compound 197] |
| 20 to 50 | CN(c1ccc(C(=O)Nc2cccnc2)cn1)[C@@H]1CCN(c2ncnc3[nH]ccc23)C1 [Compound 198] |
| 50 to 100 | CN(c1ccc(C(=O)NC(CO)c2ccc(Cl)cc2)cc1F)[C@@H]1CCN(c2ncnc3[nH]ccc23)C1 (some centres unmarked) [Compound 201] |
| 50 to 100 | CN(c1ccc(C(=O)NC[C@H](O)c2ccccc2)cc1F)[C@@H]1CCN(c2ncnc3[nH]ccc23)C1 [Compound 202] |
| 20 to 50 | CN(c1ccc(C(=O)N[C@@H]2c3ccccc3C[C@@H]2O)cc1F)[C@@H]1CCN(c2ncnc3[nH]ccc23)C1 [Compound 203] |
| 50 to 100 | CN(c1ccc(C(=O)N[C@@H](CO)c2ccccc2)cc1Cl)[C@@H]1CCN(c2ncnc3[nH]ccc23)C1 [Compound 205] |
| 50 to 100 | CN(c1ccc(C(=O)NC(CO)c2ccccc2Cl)cc1F)[C@@H]1CCN(c2ncnc3[nH]ccc23)C1 (some centres unmarked) [Compound 207] |
| 50 to 100 | CN(c1c(F)cc(C(=O)N[C@@H](CO)c2ccccc2)cc1F)[C@@H]1CCN(c2ncnc3[nH]ccc23)C1 [Compound 208] |
| 50 to 100 | COC[C@H](NC(=O)c1ccc(N(C)[C@@H]2CCN(c3ncnc4[nH]ccc34)C2)nc1)c1ccccc1 [Compound 209] |
| 50 to 100 | CN(c1ccc(NS(=O)(=O)c2ccc(F)cc2)cn1)[C@@H]1CCN(c2ncnc3[nH]ccc23)C1 [Compound 212] |
| 20 to 50 | CN(c1ccc(NS(=O)(=O)c2cc(F)ccc2F)cn1)[C@@H]1CCN(c2ncnc3[nH]ccc23)C1 [Compound 213] |
| 50 to 100 | CN(c1ccc(NS(=O)(=O)c2cccs2)cn1)[C@@H]1CCN(c2ncnc3[nH]ccc23)C1 [Compound 214] |
| 50 to 100 | CC(C)S(=O)(=O)Nc1ccc(N(C)[C@@H]2CCN(c3ncnc4[nH]ccc34)C2)nc1 [Compound 218] |
| 50 to 100 | CN(c1ccc(NS(=O)(=O)Cc2ccccc2F)cn1)[C@@H]1CCN(c2ncnc3[nH]ccc23)C1 [Compound 219] |
| 50 to 100 | CN(c1ccc(NS(=O)(=O)Cc2cccc(F)c2)cn1)[C@@H]1CCN(c2ncnc3[nH]ccc23)C1 [Compound 220] |
| 20 to 50 | CN(c1ccc(NS(=O)(=O)Cc2ccc(F)cc2)cn1)[C@@H]1CCN(c2ncnc3[nH]ccc23)C1 [Compound 221] |
| 50 to 100 | Cc1ccc(CS(=O)(=O)Nc2ccc(N(C)[C@@H]3CCN(c4ncnc5[nH]ccc45)C3)nc2)cc1 [Compound 222] |
| 50 to 100 | CN(c1ccc(NS(=O)(=O)Cc2ccccc2Cl)cn1)[C@@H]1CCN(c2ncnc3[nH]ccc23)C1 [Compound 223] |
| 50 to 100 | CN(c1ccc(NS(=O)(=O)Cc2cccc(Cl)c2)cn1)[C@@H]1CCN(c2ncnc3[nH]ccc23)C1 [Compound 224] |
| 50 to 100 | CN(c1ccc(NS(=O)(=O)Cc2ccc(Cl)cc2)cn1)[C@@H]1CCN(c2ncnc3[nH]ccc23)C1 [Compound 225] |
| 50 to 100 | CN(c1ccc(NC(=O)c2cccc(F)c2)cn1)[C@@H]1CCN(c2ncnc3[nH]ccc23)C1 [Compound 226] |
| 50 to 100 | CN(c1ccc(NC(=O)c2ccccc2Cl)cn1)[C@@H]1CCN(c2ncnc3[nH]ccc23)C1 [Compound 227] |

| inhibition at 0.3 µM [%] | Compound |
| --- | --- |
| 20 to 50 | COCC(=O)Nc1ccc(N(C)[C@@H]2CCN(c3ncnc4[nH]ccc34)C2)nc1 [Compound 228] |
| 50 to 100 | CN(c1ccc(NC(=O)C2CC2)cn1)[C@@H]1CCN(c2ncnc3[nH]ccc23)C1 [Compound 229] |
| 20 to 50 | CN(c1ccc(S(=O)(=O)NC2c3ccccc3C[C@H]2O)cn1)[C@@H]1CCN(c2ncnc3[nH]ccc23)C1 (some centres unmarked) [Compound 232] |
| 50 to 100 | CN(c1ccc(S(=O)(=O)NCC2CC2)cn1)[C@@H]1CCN(c2ncnc3[nH]ccc23)C1 [Compound 235] |
| 50 to 100 | CN(c1ccc(S(=O)(=O)NC2CC2)cn1)[C@@H]1CCN(c2ncnc3[nH]ccc23)C1 [Compound 236] |
| 50 to 100 | COCCNS(=O)(=O)c1ccc(N(C)[C@@H]2CCN(c3ncnc4[nH]ccc34)C2)nc1 [Compound 237] |
| 50 to 100 | CN(c1ccc(S(=O)(=O)NC(C)(C)C)cn1)[C@@H]1CCN(c2ncnc3[nH]ccc23)C1 [Compound 238] |
| 50 to 100 | CNS(=O)(=O)c1ccc(N(C)[C@@H]2CCN(c3ncnc4[nH]ccc34)C2)nc1 [Compound 239] |
| 50 to 100 | CCNS(=O)(=O)c1ccc(N(C)[C@@H]2CCN(c3ncnc4[nH]ccc34)C2)nc1 [Compound 240] |
| 50 to 100 | CN(c1ccc(S(=O)(=O)NC2COC2)cn1)[C@@H]1CCN(c2ncnc3[nH]ccc23)C1 [Compound 242] |
| 50 to 100 | CN(c1ccc(S(=O)(=O)NCCO)cn1)[C@@H]1CCN(c2ncnc3[nH]ccc23)C1 [Compound 243] |
| 50 to 100 | C[C@@H](O)CNS(=O)(=O)c1ccc(N(C)[C@@H]2CCN(c3ncnc4[nH]ccc34)C2)nc1 [Compound 244] |
| 50 to 100 | C[C@H](O)CNS(=O)(=O)c1ccc(N(C)[C@@H]2CCN(c3ncnc4[nH]ccc34)C2)nc1 [Compound 245] |
| 50 to 100 | CN(c1ccc(S(=O)(=O)NC2CCC[C@@H]2O)cn1)[C@@H]1CCN(c2ncnc3[nH]ccc23)C1 (some centres unmarked) [Compound 246] |
| 50 to 100 | CN(c1ccc(S(=O)(=O)N2CCCC2)cn1)[C@@H]1CCN(c2ncnc3[nH]ccc23)C1 [Compound 247] |
| 50 to 100 | CN(C)CCNS(=O)(=O)c1ccc(N(C)[C@@H]2CCN(c3ncnc4[nH]ccc34)C2)nc1 [Compound 248] |
| 50 to 100 | COCC1CCCN1S(=O)(=O)c1ccc(N(C)[C@@H]2CCN(c3ncnc4[nH]ccc34)C2)nc1 (some centres unmarked) [Compound 249] |
| 20 to 50 | CN(c1ccc(S(=O)(=O)Nc2ccn(C)n2)cn1)[C@@H]1CCN(c2ncnc3[nH]ccc23)C1 [Compound 250] |
| 50 to 100 | CN(c1ccc(S(=O)(=O)N2CCNCC2)cn1)[C@@H]1CCN(c2ncnc3[nH]ccc23)C1 [Compound 251] |
| 50 to 100 | CN(c1ccc(S(=O)(=O)N2CCOCC2)cn1)[C@@H]1CCN(c2ncnc3[nH]ccc23)C1 [Compound 252] |
| 50 to 100 | CN(c1ccc(S(=O)(=O)Nc2ccc(F)cc2)cn1)[C@@H]1CCN(c2ncnc3[nH]ccc23)C1 [Compound 253] |
| 50 to 100 | CN(c1ccc(S(=O)(=O)NCc2ccc(F)cc2)cn1)[C@@H]1CCN(c2ncnc3[nH]ccc23)C1 [Compound 254] |
| 50 to 100 | C[C@@H](NS(=O)(=O)c1ccc(N(C)[C@@H]2CCN(c3ncnc4[nH]ccc34)C2)nc1)c1ccc(F)cc1 [Compound 255] |
| 50 to 100 | C[C@H](NS(=O)(=O)c1ccc(N(C)[C@@H]2CCN(c3ncnc4[nH]ccc34)C2)nc1)c1ccc(F)cc1 [Compound 256] |
| 20 to 50 | CN(c1ccc(S(=O)(=O)NC[C@@H]2CCCO2)cn1)[C@@H]1CCN(c2ncnc3[nH]ccc23)C1 [Compound 257] |
| 50 to 100 | CN(c1ccc(S(=O)(=O)NC2CCOCC2)cn1)[C@@H]1CCN(c2ncnc3[nH]ccc23)C1 [Compound 259] |
| 50 to 100 | CN(c1ccc(C#N)c(O)n1)[C@@H]1CCN(c2ncnc3[nH]ccc23)C1 [Compound 260] |

same assay, conditions: read-out: inhibition percentage (IR %)

| Compound | inhibition at 0.3 µM [%] |
| --- | --- |
| CCS(=O)(=O)Nc1ccc(N(C)[C@@H]2CCN(c3ncnc4[nH]ccc34)C2)nc1 [Compound 210, (R)—N-6-((1(7H-pyrrolo[2,3-d]pyrimidin-4-yl)pyrrolidin-3-yl)(methyl)(amino)pyridin-3-yl)ethanesulfonamfide] | 50 to 100 |
| CN(c1ccc(NCc2ccc(F)cc2)cn1)[C@@H]1CCN(c2ncnc3[nH]ccc23)C1 [Compound 230, (R)—N^5-(4-fluorobenzyl)-N^2-(1-(7H-pyrrolo[2,3-d]pyrimidin-4-yl)pyrrolidin-3-yl)-N^2-methylpyridine-2,5-diamine] | 50 to 100 |
